One block for each compound: values may come before it. Activity calls are given as the source filed them.
Tests used:
Hexokinase HKDC1 = molecular target: T1, Hexokinase HKDC1 (Homo sapiens, UniProt Q2TB90); experiment: HKDC1 hexokinase activators, dose response, biochemical, W721R variant (AID 504730); assay type: functional
T1 sequence (Q2TB90 whole entry): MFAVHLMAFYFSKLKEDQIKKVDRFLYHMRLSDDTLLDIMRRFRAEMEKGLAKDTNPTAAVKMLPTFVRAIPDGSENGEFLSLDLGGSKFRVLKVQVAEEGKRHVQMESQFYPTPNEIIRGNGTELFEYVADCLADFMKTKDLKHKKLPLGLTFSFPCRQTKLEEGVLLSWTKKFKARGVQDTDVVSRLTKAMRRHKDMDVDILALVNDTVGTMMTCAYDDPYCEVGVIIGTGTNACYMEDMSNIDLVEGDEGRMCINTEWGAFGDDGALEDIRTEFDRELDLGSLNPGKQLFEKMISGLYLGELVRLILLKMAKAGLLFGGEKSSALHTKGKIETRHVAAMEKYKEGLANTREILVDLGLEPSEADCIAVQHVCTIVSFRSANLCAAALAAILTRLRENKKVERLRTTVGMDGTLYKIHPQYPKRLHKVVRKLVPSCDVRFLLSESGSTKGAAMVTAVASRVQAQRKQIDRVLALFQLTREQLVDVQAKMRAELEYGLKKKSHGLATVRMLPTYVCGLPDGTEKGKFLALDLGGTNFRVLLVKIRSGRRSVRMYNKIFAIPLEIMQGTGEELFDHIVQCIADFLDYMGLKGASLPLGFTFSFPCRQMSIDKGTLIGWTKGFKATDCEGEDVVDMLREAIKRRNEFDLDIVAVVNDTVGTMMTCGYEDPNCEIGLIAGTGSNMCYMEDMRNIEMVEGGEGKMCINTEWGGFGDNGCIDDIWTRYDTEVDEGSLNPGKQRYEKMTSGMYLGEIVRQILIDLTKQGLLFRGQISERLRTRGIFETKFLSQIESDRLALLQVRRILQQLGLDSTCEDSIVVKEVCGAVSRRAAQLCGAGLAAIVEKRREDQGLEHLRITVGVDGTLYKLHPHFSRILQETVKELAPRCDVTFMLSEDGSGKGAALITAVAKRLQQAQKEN

Mu-type opioid receptor = Mu-type opioid receptor (Homo sapiens, UniProt P35372); experiment: HTS Image-Based Screen for Agonists of the MOR Receptor. [Related pubchem assays (depositor defined):AID1777, AID1785, AID1786, AID2133]; assay type: functional;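 note: imaging of beta-arrestin GFP recruitment into spots after receptor activation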
Wee1-like protein kinase = Wee1-like protein kinase (Homo sapiens, UniProt P30291); experiment: Dose Response Cell-based Assay for Inhibitors of Wee1 Degradation. [Related pubchem assays: 1410, 1321 ]; assay type: functional
[1] = molecular target: Serine/threonine-protein kinase Nek2 (Homo sapiens, UniProt P51955); assay type: functional
[2] = molecular target: Serine/threonine-protein kinase D3 (Homo sapiens, UniProt O94806); assay type: functional;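 note: determined within a kinase panel screen, with PRKCN as the panel member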
[3] = molecular target: Protein kinase C zeta type (Homo sapiens, UniProt Q05513); assay type: functional;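 note: measured as one member of a broad kinase profiling panel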
[4] = molecular target: Megakaryocyte-associated tyrosine-protein kinase (Homo sapiens, UniProt P42679); assay type: functional;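 note: affinity measured as one member of a kinase panel (Navigating the Kinome) against MATK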
[5] = molecular target: Serine/threonine-protein kinase D2 (Homo sapiens, UniProt Q9BZL6); assay type: functional;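 note: measured against PRKD2 as one member of a kinome-wide kinase profiling panel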
[6] = molecular target: Tyrosine-protein kinase receptor UFO (Homo sapiens, UniProt P30530); assay type: functional
[7] = molecular target: MAP/microtubule affinity-regulating kinase 3 (Homo sapiens, UniProt P27448); assay type: functional;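 note: MARK3 affinity measured as one member of a kinome panel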
[8] = molecular target: Dual specificity protein kinase CLK4 (Homo sapiens, UniProt Q9HAZ1); assay type: functional
[9] = molecular target: T2, Histone-lysine N-methyltransferase NSD2 (Homo sapiens, UniProt O96028); assay type: biochemical
T2 sequence (O96028 whole entry): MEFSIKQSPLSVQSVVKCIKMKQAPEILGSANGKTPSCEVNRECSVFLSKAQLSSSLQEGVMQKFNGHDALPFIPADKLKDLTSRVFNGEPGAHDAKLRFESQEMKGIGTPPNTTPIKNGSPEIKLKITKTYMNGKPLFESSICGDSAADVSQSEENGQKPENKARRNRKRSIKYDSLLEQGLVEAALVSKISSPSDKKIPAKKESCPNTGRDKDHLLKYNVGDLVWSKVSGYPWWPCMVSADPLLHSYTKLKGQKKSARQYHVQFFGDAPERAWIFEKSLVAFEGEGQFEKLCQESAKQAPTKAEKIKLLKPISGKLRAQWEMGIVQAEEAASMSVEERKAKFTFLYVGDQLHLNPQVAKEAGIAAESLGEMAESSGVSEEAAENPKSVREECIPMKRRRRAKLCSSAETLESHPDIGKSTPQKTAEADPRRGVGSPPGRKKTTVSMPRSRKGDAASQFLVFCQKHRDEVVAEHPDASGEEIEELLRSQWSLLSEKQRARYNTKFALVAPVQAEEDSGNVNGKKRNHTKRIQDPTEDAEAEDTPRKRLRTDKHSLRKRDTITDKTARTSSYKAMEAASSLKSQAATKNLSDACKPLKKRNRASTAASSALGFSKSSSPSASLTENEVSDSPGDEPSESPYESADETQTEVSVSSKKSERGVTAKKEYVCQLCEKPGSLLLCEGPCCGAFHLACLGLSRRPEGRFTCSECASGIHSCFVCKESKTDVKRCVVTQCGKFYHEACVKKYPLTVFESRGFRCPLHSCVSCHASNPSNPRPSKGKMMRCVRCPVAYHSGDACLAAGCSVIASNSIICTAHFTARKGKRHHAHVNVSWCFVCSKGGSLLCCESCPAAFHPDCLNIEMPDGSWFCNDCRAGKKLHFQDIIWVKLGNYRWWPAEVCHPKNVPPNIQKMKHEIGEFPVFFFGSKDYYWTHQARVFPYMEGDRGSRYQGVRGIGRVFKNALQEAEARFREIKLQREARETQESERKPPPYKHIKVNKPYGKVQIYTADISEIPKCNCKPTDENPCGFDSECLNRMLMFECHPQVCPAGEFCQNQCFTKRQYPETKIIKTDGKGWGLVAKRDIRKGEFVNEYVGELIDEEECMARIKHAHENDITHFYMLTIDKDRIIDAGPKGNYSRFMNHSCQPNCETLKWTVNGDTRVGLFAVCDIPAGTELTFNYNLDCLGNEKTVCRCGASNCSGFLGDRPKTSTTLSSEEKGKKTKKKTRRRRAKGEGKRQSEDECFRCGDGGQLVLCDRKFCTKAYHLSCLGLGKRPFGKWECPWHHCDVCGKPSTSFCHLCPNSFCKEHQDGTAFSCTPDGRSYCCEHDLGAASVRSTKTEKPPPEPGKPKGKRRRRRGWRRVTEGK

cells = assay type: functional, cell-based
[10] = HepG2 cell cytotoxicity, dose response, cytotoxicity control, plate reader, cherry-pick, antagonist series (AID 743416); assay type: functional, cell-based
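Throughout, for IC50: HEK293 cells with StAR luciferase reporter plus wildtype and AF-2 mutant SF-1.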

Chain of Serine/threonine-protein kinase D2 (Q9BZL6 whole entry): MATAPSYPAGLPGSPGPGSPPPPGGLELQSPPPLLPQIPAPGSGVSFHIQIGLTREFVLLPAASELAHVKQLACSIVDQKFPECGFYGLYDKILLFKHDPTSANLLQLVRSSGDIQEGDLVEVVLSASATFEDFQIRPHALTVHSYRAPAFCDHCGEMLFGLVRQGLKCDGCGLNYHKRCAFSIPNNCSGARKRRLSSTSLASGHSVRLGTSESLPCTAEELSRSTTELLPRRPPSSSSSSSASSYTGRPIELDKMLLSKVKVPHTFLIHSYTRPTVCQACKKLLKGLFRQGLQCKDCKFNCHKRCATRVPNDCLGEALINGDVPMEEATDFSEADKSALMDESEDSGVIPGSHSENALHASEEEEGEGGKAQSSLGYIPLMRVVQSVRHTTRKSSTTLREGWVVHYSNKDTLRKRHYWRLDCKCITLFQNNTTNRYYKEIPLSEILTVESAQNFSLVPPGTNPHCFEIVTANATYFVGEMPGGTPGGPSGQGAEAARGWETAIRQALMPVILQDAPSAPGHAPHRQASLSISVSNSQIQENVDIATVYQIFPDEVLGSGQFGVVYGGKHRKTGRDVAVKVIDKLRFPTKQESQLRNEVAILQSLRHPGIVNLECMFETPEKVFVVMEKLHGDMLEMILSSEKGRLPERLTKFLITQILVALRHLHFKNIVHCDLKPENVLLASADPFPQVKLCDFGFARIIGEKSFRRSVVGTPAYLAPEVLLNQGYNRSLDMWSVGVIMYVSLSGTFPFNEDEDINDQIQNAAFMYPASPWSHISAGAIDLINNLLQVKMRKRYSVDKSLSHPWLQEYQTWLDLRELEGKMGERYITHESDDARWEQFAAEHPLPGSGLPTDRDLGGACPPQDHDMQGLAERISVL
Chain of Serine/threonine-protein kinase D3 (O94806 whole entry): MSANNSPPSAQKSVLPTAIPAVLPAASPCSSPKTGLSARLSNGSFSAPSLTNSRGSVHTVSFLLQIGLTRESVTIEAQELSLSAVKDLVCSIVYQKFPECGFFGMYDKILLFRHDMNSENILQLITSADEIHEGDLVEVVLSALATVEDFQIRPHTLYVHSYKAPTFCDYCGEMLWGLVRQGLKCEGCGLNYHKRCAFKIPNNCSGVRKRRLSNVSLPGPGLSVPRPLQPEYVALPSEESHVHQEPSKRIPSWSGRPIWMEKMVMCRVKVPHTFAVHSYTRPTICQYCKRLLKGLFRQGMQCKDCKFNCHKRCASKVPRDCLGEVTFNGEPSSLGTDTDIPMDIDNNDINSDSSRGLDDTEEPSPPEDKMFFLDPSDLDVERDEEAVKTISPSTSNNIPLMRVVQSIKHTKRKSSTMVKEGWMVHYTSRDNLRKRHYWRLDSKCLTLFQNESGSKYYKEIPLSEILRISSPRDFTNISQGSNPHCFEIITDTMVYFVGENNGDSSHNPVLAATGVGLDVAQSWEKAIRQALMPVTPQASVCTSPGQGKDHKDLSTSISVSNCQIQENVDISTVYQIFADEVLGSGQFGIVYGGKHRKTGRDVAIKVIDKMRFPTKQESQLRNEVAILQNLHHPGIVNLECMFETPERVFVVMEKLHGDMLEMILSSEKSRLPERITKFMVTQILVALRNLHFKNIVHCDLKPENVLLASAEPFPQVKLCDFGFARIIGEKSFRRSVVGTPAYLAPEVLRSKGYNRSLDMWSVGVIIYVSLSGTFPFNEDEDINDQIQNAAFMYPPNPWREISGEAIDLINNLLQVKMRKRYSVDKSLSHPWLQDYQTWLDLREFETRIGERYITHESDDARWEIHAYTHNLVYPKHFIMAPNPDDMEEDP
Chain of Megakaryocyte-associated tyrosine-protein kinase (P42679 whole entry): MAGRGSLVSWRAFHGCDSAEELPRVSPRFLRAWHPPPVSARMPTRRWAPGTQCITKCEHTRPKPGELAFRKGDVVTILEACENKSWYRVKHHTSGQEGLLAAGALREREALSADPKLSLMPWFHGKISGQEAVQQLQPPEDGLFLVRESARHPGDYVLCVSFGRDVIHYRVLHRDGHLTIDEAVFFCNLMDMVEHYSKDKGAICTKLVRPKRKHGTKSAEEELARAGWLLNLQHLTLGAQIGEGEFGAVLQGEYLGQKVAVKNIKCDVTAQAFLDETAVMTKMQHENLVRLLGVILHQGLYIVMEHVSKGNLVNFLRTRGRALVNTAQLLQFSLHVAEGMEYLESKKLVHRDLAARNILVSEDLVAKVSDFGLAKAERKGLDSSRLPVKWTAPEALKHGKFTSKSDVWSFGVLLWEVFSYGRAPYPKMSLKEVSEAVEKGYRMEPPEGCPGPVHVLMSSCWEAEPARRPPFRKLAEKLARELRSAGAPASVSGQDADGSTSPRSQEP
Chain of Dual specificity protein kinase CLK4 (Q9HAZ1 whole entry): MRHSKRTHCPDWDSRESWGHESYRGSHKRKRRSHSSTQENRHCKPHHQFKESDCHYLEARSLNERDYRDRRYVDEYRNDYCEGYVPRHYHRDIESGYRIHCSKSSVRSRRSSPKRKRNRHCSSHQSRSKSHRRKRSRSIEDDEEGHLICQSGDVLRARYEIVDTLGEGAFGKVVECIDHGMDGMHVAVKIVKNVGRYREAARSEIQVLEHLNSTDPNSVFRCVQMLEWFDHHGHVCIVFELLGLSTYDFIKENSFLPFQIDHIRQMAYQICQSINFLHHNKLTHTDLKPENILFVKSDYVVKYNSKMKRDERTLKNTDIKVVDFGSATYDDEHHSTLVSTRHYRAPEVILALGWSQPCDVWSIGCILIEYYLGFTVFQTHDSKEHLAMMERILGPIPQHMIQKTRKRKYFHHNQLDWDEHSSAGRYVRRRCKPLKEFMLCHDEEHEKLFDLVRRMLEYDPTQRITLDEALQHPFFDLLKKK
Chain of Tyrosine-protein kinase receptor UFO (P30530 whole entry): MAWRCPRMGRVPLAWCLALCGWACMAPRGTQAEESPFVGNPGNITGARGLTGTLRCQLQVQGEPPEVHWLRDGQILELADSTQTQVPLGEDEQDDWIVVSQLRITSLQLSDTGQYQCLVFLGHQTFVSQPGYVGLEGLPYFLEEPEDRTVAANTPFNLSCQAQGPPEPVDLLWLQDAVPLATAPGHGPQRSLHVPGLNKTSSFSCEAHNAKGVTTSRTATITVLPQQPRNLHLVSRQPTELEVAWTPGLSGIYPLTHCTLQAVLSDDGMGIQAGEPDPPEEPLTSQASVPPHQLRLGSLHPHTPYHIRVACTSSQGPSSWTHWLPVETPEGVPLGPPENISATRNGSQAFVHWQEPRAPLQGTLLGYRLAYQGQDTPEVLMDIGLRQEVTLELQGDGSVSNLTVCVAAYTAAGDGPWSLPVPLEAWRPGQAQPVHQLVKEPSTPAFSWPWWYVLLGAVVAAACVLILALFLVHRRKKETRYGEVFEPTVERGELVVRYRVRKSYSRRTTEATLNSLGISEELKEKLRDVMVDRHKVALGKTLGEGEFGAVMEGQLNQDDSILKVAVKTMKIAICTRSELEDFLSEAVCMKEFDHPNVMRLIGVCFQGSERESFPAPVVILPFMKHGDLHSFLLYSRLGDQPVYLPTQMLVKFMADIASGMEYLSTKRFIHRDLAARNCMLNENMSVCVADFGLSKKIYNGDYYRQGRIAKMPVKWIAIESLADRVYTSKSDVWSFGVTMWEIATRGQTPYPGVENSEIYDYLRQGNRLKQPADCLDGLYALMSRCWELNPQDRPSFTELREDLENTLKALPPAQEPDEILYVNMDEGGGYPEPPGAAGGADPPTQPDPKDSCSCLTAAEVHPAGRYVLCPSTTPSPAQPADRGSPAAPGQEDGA
Chain of Protein kinase C zeta type (Q05513 whole entry): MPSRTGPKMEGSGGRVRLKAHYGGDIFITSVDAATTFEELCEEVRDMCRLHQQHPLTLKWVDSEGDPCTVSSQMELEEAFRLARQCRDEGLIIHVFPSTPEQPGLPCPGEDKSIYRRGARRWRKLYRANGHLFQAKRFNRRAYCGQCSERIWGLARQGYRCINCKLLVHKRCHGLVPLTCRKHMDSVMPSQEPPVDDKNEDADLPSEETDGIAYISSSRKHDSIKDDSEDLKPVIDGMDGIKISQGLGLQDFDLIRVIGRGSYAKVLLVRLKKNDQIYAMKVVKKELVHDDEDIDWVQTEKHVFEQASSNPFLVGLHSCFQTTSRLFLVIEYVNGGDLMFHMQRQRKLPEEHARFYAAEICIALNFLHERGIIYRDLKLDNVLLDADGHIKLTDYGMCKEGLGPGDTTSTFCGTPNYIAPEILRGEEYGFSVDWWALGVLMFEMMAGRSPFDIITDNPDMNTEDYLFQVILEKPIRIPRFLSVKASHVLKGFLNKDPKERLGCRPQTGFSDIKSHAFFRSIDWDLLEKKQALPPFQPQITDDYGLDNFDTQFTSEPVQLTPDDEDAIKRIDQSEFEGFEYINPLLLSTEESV
Chain of Wee1-like protein kinase (P30291 whole entry): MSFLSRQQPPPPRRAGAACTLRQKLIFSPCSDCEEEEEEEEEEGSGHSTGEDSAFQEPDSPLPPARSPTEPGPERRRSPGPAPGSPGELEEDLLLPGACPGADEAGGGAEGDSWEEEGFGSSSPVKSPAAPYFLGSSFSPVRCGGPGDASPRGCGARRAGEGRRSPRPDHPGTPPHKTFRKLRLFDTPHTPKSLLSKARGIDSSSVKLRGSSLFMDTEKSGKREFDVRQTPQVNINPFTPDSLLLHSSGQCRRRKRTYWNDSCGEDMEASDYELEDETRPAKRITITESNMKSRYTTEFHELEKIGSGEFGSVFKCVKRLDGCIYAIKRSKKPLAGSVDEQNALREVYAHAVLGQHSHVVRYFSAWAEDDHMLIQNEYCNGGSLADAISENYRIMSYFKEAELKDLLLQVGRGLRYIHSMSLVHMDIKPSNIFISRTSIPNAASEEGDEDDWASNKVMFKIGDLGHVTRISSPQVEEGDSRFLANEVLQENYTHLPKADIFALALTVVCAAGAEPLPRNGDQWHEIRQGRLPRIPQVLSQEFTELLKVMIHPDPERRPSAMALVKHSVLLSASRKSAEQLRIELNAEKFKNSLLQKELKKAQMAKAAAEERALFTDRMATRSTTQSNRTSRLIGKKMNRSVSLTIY

Structure (SMILES): O=C1C(Cl)=C(NCc2cccnc2)C(=O)c2ccccc21
- EC50 (Hexokinase HKDC1): 9.25 µM (active)

Structure (SMILES): Cc1ccc(Nc2cc(C)nn2-c2nc(C)cc(O)n2)cc1
- EC50 (Mu-type opioid receptor): > 32 µM (inactive)
- EC50 (Wee1-like protein kinase): > 1.84 µM (active)

- Ki [1]: > 10 µM (inactive)
- Ki [2]: > 10 µM (inactive)
- Ki [3]: > 7.94 µM (inactive)
- Ki [4]: > 2 µM (inactive)
- Ki [5]: 3.16 µM (active)
- Ki [6]: > 2 µM (inactive)
- Ki [7]: 2.51 µM (active)
- Ki [8]: 0.631 µM (active)
Structure (SMILES): O=C1NC(=S)SC1=C1C(=O)Nc2ccc(Br)cc21

Structure (SMILES): O=C1C(O)=C/C(=N\c2ccccc2O)c2ccccc21
- AC50 [9]: 2.39 µM (active)

Structure (SMILES): Cc1cnc(NC(=O)c2sc3ccccc3c2Cl)s1
- IC50 (cells): > 67.5 µM (inactive)
- AC50 [10]: > 52 µM (inactive)
